The structures appear in SMILES notation.

In this test the target is T1, human LPA1 (Homo sapiens, UniProt Q92633).
T1 construct: the full-length cDNA for human LPA1 was obtained by PCR of the reverse transcription reaction; expressed in transfected cells
Put plainly: LPA1 calcium flux assay (HLPA1 Ca Flux). Type of test: cell-based. The following applies: CHO cells stably expressing human LPA1, stimulated with 10 nM LPA. Here is the method: A 1.1 kb cDNA encoding the human LPA1 receptor was cloned from human lung. Human lung RNA (Clontech Laboratories, Inc. USA) was reverse transcribed using the RETROscript kit (Ambion, Inc.) and the full-length cDNA for human LPA1 was obtained by PCR of the reverse transcription reaction. The nucleotide sequence of the cloned human LPA1 was determined by sequencing and confirmed to be identical to the published human LPA1 sequence (An et al. Biochem. Biophys. Res. Commun. 231:619 (1997). The cDNA was cloned into the pcDNA5/FRT expression plasmid and transfected in CHO cells using lipofectamine 2000 (Invitrogen Corp., USA). Clones stably expressing human LPA1 were selected using hygromycin and identified as cells that show Ca-influx in response to LPA.
Human LPA1 or LPA3 expressing CHO cells are seeded at 20,000-45,000 cells per well in a 96-well poly-D-lysine coated plate one or two days before the assay. Prior to the assay, the cells are washed once with PBS and then cultured in serum-free media overnight. On the day of the assay, a calcium indicator dye (Calcium 4, Molecular Devices) in assay buffer (HBSS with Ca^2+ and Mg^2+ and containing 20 mM Hepes and 0.3% fatty-acid free human serum albumin) is added to each well and incubation continued for 1 hour at 37° C. […] of test compounds in 2.5% DMSO are added to the cells and incubation continued at room temperature for 30 minutes. Cells are the stimulated by the addition of 10 nM LPA and intracellular Ca^2+ measured using the Flexstation 3 (Molecular Devices). IC50s are determined using Graphpad prism analysis of drug titration curves.
In general terms: Calcium flux is commonly read through the fluorescence of an indicator in the cells.

T1 sequence (Q92633 whole entry): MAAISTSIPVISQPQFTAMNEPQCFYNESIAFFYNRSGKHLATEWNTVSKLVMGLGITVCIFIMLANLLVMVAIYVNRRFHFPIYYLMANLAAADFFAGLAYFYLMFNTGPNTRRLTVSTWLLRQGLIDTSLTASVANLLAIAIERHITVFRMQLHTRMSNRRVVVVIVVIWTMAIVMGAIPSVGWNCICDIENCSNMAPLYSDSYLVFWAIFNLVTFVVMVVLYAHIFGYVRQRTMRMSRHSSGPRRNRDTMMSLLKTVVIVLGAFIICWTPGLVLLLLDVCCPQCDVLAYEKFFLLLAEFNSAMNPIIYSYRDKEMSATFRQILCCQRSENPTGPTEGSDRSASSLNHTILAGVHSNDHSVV

In general, IC50 refers to the midpoint of a concentration-inhibition curve. On to `Cc1noc(-c2ccc(-c3ccc(C4(C(=O)O)CC4)cc3)cc2)c1NCCC(C)c1ccccc1` (centres unmarked) [Compound 1, 1-{4′-[3-Methyl-4-(3-phenyl-butylamino)-isoxazol-5-yl]-biphenyl-4-yl}-cyclopropanecarboxylic acid], for which the IC50 was less than 300 nM.

In the case of `Cc1noc(-c2ccc(-c3ccc(C4(C(=O)O)CC4)cc3)cc2)c1NCCCc1ccccc1` [Compound 2, 1-{4′-[3-Methyl-4-(3-phenyl-propylamino)-isoxazol-5-yl]-biphenyl-4-yl}-cyclopropanecarboxylic acid], the IC50 was less than 300 nM.

Take `Cc1noc(-c2ccc(-c3ccc(C4(C(=O)O)CC4)cc3)cc2)c1NCC(C)Cc1ccc(C(C)C)cc1` (centres unmarked) [Compound 3, 1-(4′-{4-[3-(4-Isopropyl-phenyl)-2-methyl-propylamino]-3-methyl-isoxazol-5-yl}-biphenyl-4-yl)-cyclopropanecarboxylic acid]: the IC50 fell in the range of 300 to 1000 nM. For `Cc1noc(-c2ccc(-c3ccc(C4(C(=O)O)CC4)cc3)cc2)c1CNCCc1ccccc1` [Compound 5, 1-{4′-[3-Methyl-4-(phenethylamino-methyl)-isoxazol-5-yl]-biphenyl-4-yl}-cyclopropanecarboxylic acid] the value was 300 to 1000 nM; for `Cc1noc(-c2ccc(-c3ccc(C4(C(=O)O)CC4)cc3)cc2)c1CCCCc1ccccc1` [Compound 6, 1-{4′-[3-Methyl-4-(4-phenyl-butyl)-isoxazol-5-yl]-biphenyl-4-yl}-cyclopropanecarboxylic acid], less than 300 nM.

As for `Cc1noc(-c2ccc(-c3ccc(C4(C(=O)O)CC4)cc3)cc2)c1CCOCc1ccccc1` [Compound 7, 1-{4′-[4-(2-Benzyloxy-ethyl)-3-methyl-isoxazol-5-yl]-biphenyl-4-yl}-cyclopropanecarboxylic acid], the IC50 is less than 300 nM. In the case of `Cc1noc(-c2ccc(-c3ccc(C4(C(=O)O)CC4)cc3)cc2)c1COCCc1ccccc1` [Compound 8, 1-[4′-(3-Methyl-4-phenethyloxymethyl-isoxazol-5-yl)-biphenyl-4-yl]-cyclopropanecarboxylic acid], the IC50 was less than 300 nM. As for `Cc1noc(-c2ccc(-c3ccc(C4(C(=O)O)CC4)cc3)cc2)c1COC(C)Cc1ccccc1` (centres unmarked) [Compound 9, 1-{4′-[3-Methyl-4-(1-methyl-2-phenyl-ethoxymethyl)-isoxazol-5-yl]-biphenyl-4-yl}-cyclopropanecarboxylic acid], the IC50 was less than 300 nM. Take `Cc1noc(-c2ccc(-c3ccc(C4(C(=O)O)CC4)cc3)cc2)c1CSCCc1ccccc1` [Compound 10, 1-[4′-(3-Methyl-4-phenethylsulfanylmethyl-isoxazol-5-yl)-biphenyl-4-yl]-cyclopropanecarboxylic acid]: the IC50 was less than 300 nM. Consider `Cc1noc(-c2ccc(-c3ccc(C4(C(=O)O)CC4)cc3)cc2)c1COCC(C)c1ccccc1` (centres unmarked) [Compound 11, 1-{4′-[3-Methyl-4-(2-phenyl-propoxymethyl)-isoxazol-5-yl]-biphenyl-4-yl}-cyclopropanecarboxylic acid], for which the IC50 is less than 300 nM.

Take `Cc1noc(-c2ccc(-c3ccc(C4(C(=O)O)CC4)cc3)cc2)c1CNCC(O)c1ccccc1` (centres unmarked) [Compound 12, 1-(4′-{4-[(2-Hydroxy-2-phenyl-ethylamino)-methyl]-3-methyl-isoxazol-5-yl}-biphenyl-4-yl)-cyclopropanecarboxylic acid]: the IC50 fell in the range of 1000 to 50000 nM.

Regarding `Cc1noc(-c2ccc(-c3ccc(C4(C(=O)O)CC4)cc3)cc2)c1CNCC(C)c1ccccc1` (centres unmarked) [Compound 13, 1-(4′-{3-Methyl-4-[(2-phenyl-propylamino)-methyl]-isoxazol-5-yl}-biphenyl-4-yl)-cyclopropanecarboxylic acid], the 50% inhibitory concentration (IC50) was less than 300 nM. As to `Cc1noc(-c2ccc(-c3ccc(C4(C(=O)O)CC4)cc3)cc2)c1CCOC(C)c1ccccc1` (centres unmarked) [Compound 14, 1-(4′-{3-Methyl-4-[2-(1-phenyl-ethoxy)-ethyl]-isoxazol-5-yl}-biphenyl-4-yl)-cyclopropanecarboxylic acid], the IC50 is less than 300 nM. As for `Cc1noc(-c2ccc(-c3ccc(C4(C(=O)O)CC4)cc3)cc2)c1CCOCc1ccccc1Cl` [Compound 15, 1-(4′-{4-[2-(2-Chloro-benzyloxy)-ethyl]-3-methyl-isoxazol-5-yl}-biphenyl-4-yl)-cyclopropanecarboxylic acid], the IC50 is less than 300 nM. The value for `Cc1noc(-c2ccc(-c3ccc(C4(C(=O)O)CC4)cc3)cc2)c1CCOCc1cccc(Cl)c1` [Compound 16, 1-(4′-{4-[2-(3-Chloro-benzyloxy)-ethyl]-3-methyl-isoxazol-5-yl}-biphenyl-4-yl)-cyclopropanecarboxylic acid] was less than 300 nM.

On to `Cc1noc(-c2ccc(-c3ccc(C4(C(=O)O)CC4)cc3)cc2)c1CCOCc1ccc(Cl)cc1` [Compound 17, 1-(4′-{4-[2-(4-Chloro-benzyloxy)-ethyl]-3-methyl-isoxazol-5-yl}-biphenyl-4-yl)-cyclopropanecarboxylic acid], for which the IC50 was less than 300 nM. The value for `Cc1noc(-c2ccc(-c3ccc(C4(C(=O)O)CC4)cc3)cc2)c1CCSCc1ccccc1` [Compound 18, 1-{4′-[4-(2-Benzylsulfanyl-ethyl)-3-methyl-isoxazol-5-yl]-biphenyl-4-yl}-cyclopropanecarboxylic acid] was less than 300 nM; that for `Cc1noc(-c2ccc(-c3ccc(C4(C(=O)O)CC4)cc3)cc2)c1COCC(C)(O)c1ccccc1` (centres unmarked) [Compound 19, 1-{4′-[4-(2-hydroxy-2-phenyl-propoxymethyl)-3-methyl-isoxazol-5-yl]-biphenyl-4-yl}-cyclopropanecarboxylic acid] was 1000 to 50000 nM. As to `Cc1noc(-c2ccc(-c3ccc(C4(C(=O)O)CC4)cc3)cc2)c1CC(O)CCc1ccccc1` (centres unmarked) [Compound 20, 1-{4′-[4-(2-Hydroxy-4-phenyl-butyl)-3-methyl-isoxazol-5-yl]-biphenyl-4-yl}-cyclopropanecarboxylic acid], the IC50 is less than 300 nM. Consider `Cc1noc(-c2ccc(-c3ccc(C4(C(=O)O)CC4)cc3)cc2)c1CNC[C@H](C)c1ccccc1` [Compound 22, 1-(4′-{3-Methyl-4-[((R)-2-phenyl-propylamino)-methyl]-isoxazol-5-yl}-biphenyl-4-yl)-cyclopropanecarboxylic acid], for which the IC50 was less than 300 nM.

Turning to `Cc1noc(-c2ccc(-c3ccc(C4(C(=O)O)CC4)cc3)cc2)c1CCC(O)Cc1ccccc1` (centres unmarked) [Compound 23, 1-{4′-[4-(3-Hydroxy-4-phenyl-butyl)-3-methyl-isoxazol-5-yl]-biphenyl-4-yl}-cyclopropanecarboxylic acid], the IC50 is 300 to 1000 nM. Turning to `Cc1noc(-c2ccc(-c3ccc(C4(C(=O)O)CC4)cc3)cc2)c1CC(C)(O)CCc1ccccc1` (centres unmarked) [Compound 25, 1-{4′-[4-(2-Hydroxy-2-methyl-4-phenyl-butyl)-3-methyl-isoxazol-5-yl]-biphenyl-4-yl}-cyclopropanecarboxylic acid], the IC50 is less than 300 nM. For the compound `Cc1noc(-c2ccc(-c3ccc(C4(C(=O)O)CC4)cc3)cc2)c1C(C)(O)CCCc1ccccc1` (centres unmarked) [Compound 26, 1-{4′-[4-(1-Hydroxy-1-methyl-4-phenyl-butyl)-3-methyl-isoxazol-5-yl]-biphenyl-4-yl}-cyclopropanecarboxylic acid], the IC50 is less than 300 nM. Consider `Cc1noc(-c2ccc(-c3ccc(C4(C(=O)O)CC4)cc3)cc2)c1CC(O)CNCc1ccccc1` (centres unmarked) [Compound 27, 1-{4′-[4-(3-Benzylamino-2-hydroxy-propyl)-3-methyl-isoxazol-5-yl]-biphenyl-4-yl}-cyclopropanecarboxylic acid], for which the IC50 is 1000 to 50000 nM. In the case of `Cc1noc(-c2ccc(-c3ccc(C4(C(=O)O)CC4)cc3)cc2)c1CCNCc1ccccc1` [Compound 28, 1-{4′-[4-(2-Benzylamino-ethyl)-3-methyl-isoxazol-5-yl]-biphenyl-4-yl}-cyclopropanecarboxylic acid], the IC50 is 300 to 1000 nM.

Take `Cc1noc(-c2ccc(-c3ccc(C4(C(=O)O)CC4)cc3)cc2)c1C(O)CNCc1ccccc1` (centres unmarked) [Compound 29, 1-{4′-[4-(2-Benzylamino-1-hydroxy-ethyl)-3-methyl-isoxazol-5-yl]-biphenyl-4-yl}-cyclopropanecarboxylic acid]: the IC50 was less than 300 nM. The value for `Cc1noc(-c2ccc(-c3ccc(C4(C(=O)O)CC4)cc3)cc2)c1NC(C)CCc1cccc(C(F)(F)F)c1` (centres unmarked) [Compound 31, 1-(4′-{3-Methyl-4-[1-methyl-3-(3-trifluoromethyl-phenyl)-propylamino]-isoxazol-5-yl}-biphenyl-4-yl)-cyclopropanecarboxylic acid] was less than 300 nM; that for `Cc1noc(-c2ccc(-c3ccc(C4(C(=O)O)CC4)cc3)cc2)c1C(O)CCc1ccccc1` (centres unmarked) [Compound 34, 1-{4′-[4-(1-Hydroxy-3-phenyl-propyl)-3-methyl-isoxazol-5-yl]-biphenyl-4-yl}-cyclopropanecarboxylic acid] was less than 300 nM; that for `Cc1noc(-c2ccc(-c3ccc(C4(C(=O)O)CC4)cc3)cc2)c1C(O)CCc1cccc(C(F)(F)F)c1` (centres unmarked) [Compound 35, 1-(4′-{4-[1-Hydroxy-3-(3-trifluoromethyl-phenyl)-propyl]-3-methyl-isoxazol-5-yl}-biphenyl-4-yl)-cyclopropanecarboxylic acid] was less than 300 nM.

The record behind these values is patent US8217066B2, “Compounds as lysophosphatidic acid receptor antagonists” (Amira Pharmaceuticals, Inc., priority 2009, dated 2012).
